Common to all, as to format: functional, cell-based
One assay relates to A549. Put plainly: Cytostatic activity against human A549 cells after 48 hrs by MTT assay. To be noted: A549, 48 h. A general note: Tetrazolium assays rely on reduction of a dye to a coloured formazan, in cell work by metabolically active cells.
In another assay the test system is MCF7. The assay can be described thus: Cytostatic activity against human MCF7 cells after 48 hrs by MTT assay. To be noted: MCF7, 48 h.
The test system of a further assay is HeLa. The assay can be described thus: Cytostatic activity against human HeLa cells after 48 hrs by MTT assay.
Another assay concerns HL-60. The assay can be described thus: Cytostatic activity against human HL60 cells after 48 hrs by MTT assay. The following applies: HL-60, 48 h.

SMILES strings stand for the structures. pIC50: −log10 of the molar value.

Regarding `CCCCCCCCCCCCCCCC(=O)OC[C@@H](COP(=O)(O)OC[C@H]1O[C@@H](n2cnc3c(N)nc(Cl)nc32)[C@@H](F)[C@@H]1O)OC(=O)CCCCCCCCCCCCCCC`, the negative logarithm of the IC50 (pIC50) – broadly, the negative decadic logarithm of the IC50, by convention in mol/L – in the assay on A549 was less than 4.00; in the assay on MCF7, less than 4.00; in the assay with HeLa it was less than 4.00; in the assay with HL-60, 5.00.

Take `CCCCCCCCCCCCCC(=O)OC[C@@H](COP(=O)(O)OC[C@H]1O[C@@H](n2cnc3c(N)nc(Cl)nc32)[C@@H](F)[C@@H]1O)OC(=O)CCCCCCCCCCCCC`: the negative logarithm of the IC50 (pIC50) in the assay with A549 was less than 4.00; in the assay with MCF7, 4.40; in the assay on HeLa, 4.30; in the assay with HL-60, 6.10.

Regarding `CCCCCCCCCCCCCCCC(=O)OCC(COC(=O)CCCCCCCCCCCCCCC)OP(=O)(O)OC[C@H]1O[C@@H](n2cnc3c(N)nc(Cl)nc32)[C@@H](F)[C@@H]1O`, the pIC50 was 4.05 in the assay on A549, 4.52 in the assay on MCF7, 4.00 in the assay on HeLa and 4.26 with HL-60.

On to `Nc1nc(Cl)nc2c1ncn2[C@@H]1O[C@H](CO)[C@@H](O)[C@@H]1F` [CLOFARABINE], for which the pIC50 was 5.10 with A549, 4.30 in the assay with MCF7, 4.30 in the assay on HeLa and 7.00 with HL-60.

On to `CCCCCCCCCCCCCC(=O)OCC(COC(=O)CCCCCCCCCCCCC)OP(=O)(O)OC[C@H]1O[C@@H](n2cnc3c(N)nc(Cl)nc32)[C@@H](F)[C@@H]1O`, for which the pIC50 in the assay with A549 was less than 4.00; with MCF7, 4.40; in the assay on HeLa, less than 4.00; in the assay on HL-60, less than 4.00.
